Measurements as given in patent US20250221410A1, “SUBSTITUTED 2-C-AZINES AND SALTS THEREOF, AND USE THEREOF AS HERBICIDAL ACTIVE SUBSTANCES” (BAYER AKTIENGESELLSCHAFT, priority 2022, published 2025).

Columns and labels:
Type in all cases: in vivo
STEME: Stellaria media [1] = experiment: Post-emergence herbicidal efficacy at 1280 g/ha, STEME; settings: visual rating about 3 weeks after treatment vs untreated controls
How it was run: (§1)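 Greenhouse pot test in sandy loam. Plants at the one-leaf stage, 2–3 weeks after sowing, were sprayed post-emergence with WP or EC formulations in water containing 0.5% additive, at 600 L/ha. Activity was scored visually about 3 weeks later against untreated controls (100% = dead, 0% = as control).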

SETVI: Setaria viridis [2] = experiment: Post-emergence herbicidal efficacy at 1280 g/ha, SETVI; settings: visual rating about 3 weeks after treatment vs untreated controls
Description: (§2) Seeds of mono- and dicotyledonous weed plants were placed in plastic pots in sandy loam soil (doubly sown with in each case one species of mono- or dicotyledonous weed plants per pot), covered with soil and cultivated in a greenhouse under controlled growth conditions. 2 to 3 weeks after sowing, the test plants were treated at the one-leaf stage. The compounds of the invention, formulated in the form of wettable powders (WP) or as emulsion concentrates (EC), were applied to the green parts of the plants as aqueous suspension or emulsion with addition of 0.5% additive at a water application rate equivalent to 600 litres per hectare. After the test plants had been kept in the greenhouse under optimum growth conditions for about 3 weeks, the activity of the preparations was rated visually in comparison to untreated controls. For example, 100% activity=the plants have died, 0% activity=like control plants. Tables A1 to A12 below show the effects of selected compounds of the general formula (I) according to Table 1 on various harmful plants and at an application rate corresponding to 1280 g/ha, which were obtained by the trial procedure specified above.

[3] = test system: AMARE: Amaranthus retroflexus; experiment: Pre-emergence herbicide efficacy at 1280 g/ha, AMARE; settings: visual scoring after about 3 weeks vs untreated controls
How it was run: (§3)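 Efficacy is a visual percentage rating against untreated controls, taken about 3 weeks after soil-surface application to freshly sown, soil-covered seeds in sandy loam.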

VERPE: Veronica persica [4] = experiment: Pre-emergence herbicide efficacy at 1280 g/ha, VERPE; settings: visual scoring vs untreated controls
How it was run: as §3

[5] = test system: ECHCG: Echinochloa crus-galli; experiment: Post-emergence herbicidal efficacy at 1280 g/ha, ECHCG; settings: rated visually after about 3 weeks vs untreated controls, 100% = plants have died, 0% = like control plants
Description: as §2

[6] = test system: DIGSA: Digitaria sanguinalis; experiment: Post-emergence herbicidal efficacy at 1280 g/ha, DIGSA; settings: rated visually after about 3 weeks vs untreated controls, 100% = plants have died, 0% = like control plants
Description: as §2

[7] = test system: ABUTH: Abutilon theophrasti; experiment: Post-emergence herbicidal efficacy at 1280 g/ha, ABUTH; settings: rated visually after about 3 weeks vs untreated controls, 100% = plants have died, 0% = like control plants
How it was run: as §1

[8] = test system: ECHCG: Echinochloa crus-galli; experiment: Pre-emergence herbicide efficacy at 1280 g/ha, ECHCG; settings: visual scoring after about 3 weeks vs untreated controls
How it was run: as §3

VERPE: Veronica persica [9] = experiment: Post-emergence herbicidal efficacy at 1280 g/ha, VERPE; settings: visual rating about 3 weeks after treatment vs untreated controls
How it was run: as §1

STEME: Stellaria media [10] = experiment: Pre-emergence herbicide efficacy at 1280 g/ha, STEME; settings: visual scoring vs untreated controls
How it was run: as §3

POAAN: Poa annua [11] = experiment: Post-emergence herbicidal efficacy at 1280 g/ha, POAAN; settings: visual rating about 3 weeks after treatment vs untreated controls
How it was run: as §1

SETVI: Setaria viridis [12] = experiment: Pre-emergence herbicide efficacy at 1280 g/ha, SETVI; settings: visual scoring vs untreated controls
How it was run: as §3

KCHSC: Kochia scoparia [13] = experiment: Post-emergence herbicidal efficacy at 1280 g/ha, KCHSC; settings: visual rating about 3 weeks after treatment vs untreated controls
How it was run: as §1

[14] = test system: AMARE: Amaranthus retroflexus; experiment: Post-emergence herbicidal efficacy at 1280 g/ha, AMARE; settings: rated visually after about 3 weeks vs untreated controls, 100% = plants have died, 0% = like control plants
How it was run: as §1

POAAN: Poa annua [15] = experiment: Pre-emergence herbicide efficacy at 1280 g/ha, POAAN; settings: visual scoring after about 3 weeks vs untreated controls
How it was run: as §3

[16] = test system: DIGSA: Digitaria sanguinalis; experiment: Pre-emergence herbicide efficacy at 1280 g/ha, DIGSA; settings: visual scoring after about 3 weeks vs untreated controls
How it was run: as §3

[17] = test system: ABUTH: Abutilon theophrasti; experiment: Pre-emergence herbicide efficacy at 1280 g/ha, ABUTH; settings: visual scoring after about 3 weeks vs untreated controls
How it was run: as §3

[18] = test system: MATIN: Matricaria inodora; experiment: Pre-emergence herbicide efficacy at 1280 g/ha, MATIN; settings: visual scoring after about 3 weeks vs untreated controls
Description: (§4) Seeds of mono- and dicotyledonous weed plants were placed in plastic pots in sandy loam soil (doubly sown with one species each of mono- or dicotyledonous weed plants per pot) and covered with soil. The compounds of the invention, formulated in the form of wettable powders (WP) or as emulsion concentrates (EC), were then applied to the surface of the covering soil as aqueous suspension or emulsion with addition of 0.5% additive at a water application rate of 600 litres per hectare (converted). After the treatment, the pots were placed in a greenhouse and kept under good growth conditions for the test plants. After about 3 weeks, the efficacy of the preparations was scored visually in comparison with untreated controls as percentages. For example, 100% activity=the plants have died, 0% activity=like control plants. Tables C1 to C12 below show the effects of selected compounds of the general formula (I) according to Table 1 on various harmful plants and at an application rate corresponding to 1280 g/ha, which were obtained by the trial procedure specified above.

KCHSC: Kochia scoparia [19] = experiment: Pre-emergence herbicide efficacy at 1280 g/ha, KCHSC; settings: visual scoring after about 3 weeks vs untreated controls
Description: as §4

Row | Structure (SMILES) | Post-emergence efficacy against STEME (STEME: Stellaria media [1]) [%] | Post-emergence efficacy against SETVI (SETVI: Setaria viridis [2]) [%] | Pre-emergence efficacy against AMARE [3] [%] | Pre-emergence efficacy against VERPE in % (VERPE: Veronica persica [4]) [%] | Post-emergence efficacy at 1280 g/ha against ECHCG in % [5] [%] | Post-emergence efficacy at 1280 g/ha against DIGSA in % [6] [%] | Post-emergence efficacy at 1280 g/ha against ABUTH in % [7] [%] | Pre-emergence efficacy against ECHCG [8] [%] | Post-emergence efficacy against VERPE (VERPE: Veronica persica [9]) [%] | Pre-emergence efficacy against STEME in % (STEME: Stellaria media [10]) [%] | Post-emergence efficacy against POAAN (POAAN: Poa annua [11]) [%] | Pre-emergence efficacy against SETVI in % (SETVI: Setaria viridis [12]) [%] | Post-emergence efficacy against KCHSC (KCHSC: Kochia scoparia [13]) [%] | Post-emergence efficacy at 1280 g/ha against AMARE in % [14] [%] | Pre-emergence efficacy against POAAN (POAAN: Poa annua [15]) [%] | Pre-emergence efficacy against DIGSA [16] [%] | Pre-emergence efficacy against ABUTH [17] [%] | Pre-emergence efficacy against MATIN [18] [%] | Pre-emergence efficacy against KCHSC (KCHSC: Kochia scoparia [19]) [%]
1 | N#Cc1cccc(Cc2ncc(Cl)cn2)c1Oc1ccc(F)cc1 [Example 1-38] | 100 | 90 | 100 | 100 | 100 | 90 | 100 | 100 | 100 | 100 | 90 | 100 | 100 | 100 | 100 | 100 |  |  | 
2 | Clc1cnc(Oc2ccccc2Cc2ncccn2)nc1 [Example 1-76] |  |  | 100 | 90 |  |  |  |  | 90 | 90 |  |  |  | 90 |  |  | 90 | 90 | 
3 | Fc1cnc(Cc2ccccc2Oc2ncc(F)cn2)nc1 [Example 1-89] |  |  | 100 | 100 |  |  | 90 |  | 100 | 90 |  | 90 | 100 | 100 | 100 | 100 | 100 | 100 | 100
4 | Fc1ccc(Sc2ccccc2Cc2ncc(Cl)cn2)cc1 [Example 1-99] | 100 | 90 | 100 |  | 100 | 90 | 90 | 100 | 90 | 100 | 100 | 100 | 100 | 100 | 100 | 100 | 90 |  | 
5 | Fc1ccc(Cc2ccccc2Oc2ncc(F)cn2)nc1 [Example 1-93] |  |  | 100 | 100 |  |  | 90 | 100 | 100 | 100 | 100 | 100 | 100 | 100 | 100 | 100 | 100 | 100 | 100
6 | Fc1cnc(Cc2ccccc2-c2ccc(F)c(F)c2)nc1 [Example 1-27] | 90 | 90 | 100 | 100 |  | 90 | 90 | 90 | 90 |  | 90 | 100 | 90 | 100 | 90 | 100 | 100 |  | 90
7 | Fc1ccc(-c2ccccc2Cc2ncc(Cl)cn2)cc1F [Example 1-26] | 100 | 90 | 100 |  | 90 | 90 | 100 | 90 | 100 |  | 90 | 90 | 100 | 100 | 100 | 100 | 90 |  | 100
8 | Fc1ccc(Cc2ccccc2Cc2ncc(Cl)cn2)cc1 [Example 1-23] | 90 | 90 | 100 | 100 | 100 | 100 | 100 | 100 | 100 | 100 | 100 | 100 | 90 | 100 | 90 | 100 | 100 |  | 90
9 | FC(F)(F)CCSc1ccccc1Cc1ncc(Cl)cn1 [Example 1-112] | 100 | 90 | 100 | 100 | 90 | 90 | 100 | 100 | 100 | 90 | 100 | 90 | 100 | 100 | 90 | 100 | 90 |  | 100
10 | Fc1ccc(Oc2c(Br)cccc2Cc2ncc(Cl)cn2)cc1 [Example 1-37] | 90 |  | 100 |  | 100 | 90 | 100 | 90 | 100 | 90 | 100 | 100 | 100 | 100 | 90 | 100 |  |  | 
